Patent publication US12410160B2 (Gilead Sciences, Inc., priority 2021, dated 2025)
Where two headings read alike, the source gives them in different places.

Tests used:
[1] = test system: HepG2 cells; assay: F1P Cell-Based Assay (EC50), 13C6-fructose-1-phosphate in HepG2 cells (cell culture medium or 50% human plasma); conditions: Homo sapiens
Method: F1P Cell-Based Assay (EC50)
Compounds were serially diluted (1:3) in DMSO. The LabCyte ECHO Acoustic dispenser system was used to pre-spot the assay plates (Greiner, Catalog #781091) with 400 nL (200-fold final dilution in 80 μL assay volume) of compound. 25,000 cells/well HepG2 cells (ATCC Catalog #HB-8065) were plated in a 40 μL volume/well in DMEM medium with 4.5 g/L glucose, 1× Penicillin-Streptomycin-Glutamine, and 10% FBS, using a BioTEK dispenser in a biological hood and incubated overnight at 37° C., 5% CO2, 90% humidity. 40 μL/well serum free assay medium (for F1P assay in cell culture medium), or 40 μL/well 100% human plasma (for F1P assay in 50% human plasma) were then added to the plates on the following day, and incubated for 1 hour at 37° C., 5% CO2, 90% humidity. ^13C6-labelled fructose (Sigma, Catalog #587621) in sterile PBS was added to the plates at a final concentration of 5 mM. The plates were incubated for 2 hours at 37° C., 5% CO2, 90% humidity. The assay was quenched by washing the cells with sterile PBS and adding 60 μL/well of 80% (v/v) methanol, 2 mM ammonium acetate and 2.5 μM Crotonyl-CoA, using a BioTEK washer-dispenser system. The plates were then sealed and stored in the −80° C. freezer until ready for RapidFire readout. ^13C6-fructose-1-phosphate in individual wells was quantified using the Agilent RapidFire High-Throughput MS system in negative mode using a […]. Mobile Phase 1 consisted of 20 mM ammonium acetate with 0.05% acetic acid in 100% methanol. Mobile phase 2 consisted of 5 mM octylamine in water (pH adjusted to 5 using acetic acid). F1P signals in individual wells were normalized by crotonyl CoA internal control.

[2] = biological target: human KHK-C (Homo sapiens (Human), UniProt P50053); assay: KHK Biochemical Assay (IC50), ADP-Glo, KHK-C; conditions: ADP-Glo; average of at least two separate assays
Sequence of human KHK-C (P50053 whole entry): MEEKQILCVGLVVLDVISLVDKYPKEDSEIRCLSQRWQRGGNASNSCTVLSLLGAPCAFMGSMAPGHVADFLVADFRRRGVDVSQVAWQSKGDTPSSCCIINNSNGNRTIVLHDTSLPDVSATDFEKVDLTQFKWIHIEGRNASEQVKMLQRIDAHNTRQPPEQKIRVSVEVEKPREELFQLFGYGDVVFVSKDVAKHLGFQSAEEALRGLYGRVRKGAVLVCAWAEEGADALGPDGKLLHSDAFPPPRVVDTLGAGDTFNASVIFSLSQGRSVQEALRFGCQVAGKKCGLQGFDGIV
Outline: (§1)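 ADP-Glo luminescence measured ADP made over a 4 h room-temperature reaction of ATP plus fructose, started after 30 min compound–enzyme pre-incubation. Buffer: 50 mM Hepes pH 7.4, 140 mM KCl, 5 mM MgCl2, 0.01% Triton-X. Enzyme was His-tagged, BL21 (DE3)-expressed, Ni-NTA-purified; compounds in 1:3 DMSO dilution series.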

[3] = biological target: human KHK-A (Homo sapiens (Human), UniProt P50053); assay: KHK Biochemical Assay (IC50), ADP-Glo, KHK-A; conditions: ADP-Glo; average of at least two separate assays
Sequence of human KHK-A (P50053 other isoform, or with tags, fused parts or gaps): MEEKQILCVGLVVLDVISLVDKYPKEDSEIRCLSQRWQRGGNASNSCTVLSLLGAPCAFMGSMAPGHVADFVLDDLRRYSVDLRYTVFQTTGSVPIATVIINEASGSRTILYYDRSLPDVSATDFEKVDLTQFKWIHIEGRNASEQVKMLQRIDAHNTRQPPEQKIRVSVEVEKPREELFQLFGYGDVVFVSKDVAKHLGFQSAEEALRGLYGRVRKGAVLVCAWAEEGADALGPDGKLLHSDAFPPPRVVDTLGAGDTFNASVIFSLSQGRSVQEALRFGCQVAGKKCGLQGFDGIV
Outline: as §1

[4] = HepG2, HepG2 cells, 50% human plasma, read-out: F1P 50% HP EC50
[5] = HepG2, read-out: F1P 10% FBS EC50, HepG2 cells, cell culture medium (10% FBS)

Molecule | EC50 [1, 4] [nM] | EC50 [1, 5] [nM] | IC50 [2] [nM] | IC50 [3] [nM]
C[C@H]1[C@H](O)CN1c1nc(-c2ccc(OC(F)F)c(S(C)(=N)=O)c2)c2c(n1)C(F)(F)CC2 (some centres unmarked) [Example 532] | 55.1 | 5.1 | – | –
C[C@H]1[C@H](O)CN1c1nc(-c2ccc3c(c2)OC(C(F)F)CNC3=O)c2c(n1)C(F)(F)CC2 (stereo partly drawn) [Example 597, 8-(7,7-difluoro-2-((2S,3R)-3-hydroxy-2-methylazetidin-1-yl)-6,7-dihydro-5H-cyclopenta[d]pyrimidin-4-yl)-2-(difluoromethyl)-3,4-dihydrobenzo[f][1,4]oxazepin-5(2H)-one] | 34.4 | 16 | – | –
C[C@H]1[C@H](O)CN1c1nc(-c2ccc3c(c2)C(NS(C)(=O)=O)CO3)c2c(n1)C(F)(F)CC2 (some centres unmarked) [Example 613] | 26 | 14.5 | – | –
C[C@H]1[C@H](O)CN1c1nc(-c2cccc(-n3cnnc3)c2)c2c(n1)C(F)(F)CC2 [Example 619, (2S,3R)-1-(4-(3-(4H-1,2,4-triazol-4-yl)phenyl)-7,7-difluoro-6,7-dihydro-5H-cyclopenta[d]pyrimidin-2-yl)-2-methylazetidin-3-ol] | > 500 | 77.3 | – | –
CCS(=O)(=O)N[C@H]1COc2cc(-c3nc(N4C[C@@H](O)[C@@H]4C)nc4c3CCC4(F)F)ccc21 [Example 624, N—((R)-6-(7,7-difluoro-2-((2S,3R)-3-hydroxy-2-methylazetidin-1-yl)-6,7-dihydro-5H-cyclopenta[d]pyrimidin-4-yl)-2,3-dihydrobenzofuran-3-yl)ethanesulfonamide] | 282 | 129 | – | –
C[C@H]1CCN1c1nc(-c2cn(C3CNC3)nn2)c2c(n1)C(F)(F)CC2 [Example 653, 4-[1-(azetidin-3-yl)triazol-4-yl]-7,7-difluoro-2-[(2S)-2-methylazetidin-1-yl]-5,6-dihydrocyclopenta[d]pyrimidine] | 10.3 | 11 | – | –
C[C@H]1CCN1c1nc(-c2cccc(-n3ccnn3)c2)c2c(n1)C(F)(F)CC2 [Example 654, 7,7-difluoro-2-[(2S)-2-methylazetidin-1-yl]-4-[3-(triazol-1-yl)phenyl]-5,6-dihydrocyclopenta[d]pyrimidine] | 214 | 129 | – | –
C[C@H]1CCN1c1nc(-c2ccc(-n3ccnn3)cc2)c2c(n1)C(F)(F)CC2 [Example 655, 7,7-difluoro-2-[(2S)-2-methylazetidin-1-yl]-4-[4-(triazol-1-yl)phenyl]-5,6-dihydrocyclopenta[d]pyrimidine] | 236 | 46.2 | – | –
C[C@H]1CCN1c1nc2c(c(-c3cccc(S(=N)(=O)c4ccc(C#N)cc4)c3)n1)CCC2 (stereo partly drawn) [Example 879, 4-(3-(2-((S)-2-methylazetidin-1-yl)-6,7-dihydro-5H-cyclopenta[d]pyrimidin-4-yl)phenylsulfonimidoyl)benzonitrile] | – | – | 46.7 | 41.6
COc1ccc(-c2nc(N3CC[C@@H]3C)nc3c2CCC3)cc1S(=N)(=O)CCN(C)C(C)=O (stereo partly drawn) [Example 881, N-(2-(2-methoxy-5-(2-((S)-2-methylazetidin-1-yl)-6,7-dihydro-5H-cyclopenta[d]pyrimidin-4-yl)phenylsulfonimidoyl)ethyl)-N-methylacetamide] | – | – | 70.5 | 46
C[C@H]1CCN1c1nc2c(c(-c3ccc4c(c3)C(NS(C)(=O)=O)CCO4)n1)CCC2 (stereo partly drawn) [Example 883, N-(6-(2-((S)-2-methylazetidin-1-yl)-6,7-dihydro-5H-cyclopenta[d]pyrimidin-4-yl)chroman-4-yl)methanesulfonamide] | – | – | 14.6 | 21
CCC1Oc2cc(-c3nc(N4CC[C@@H]4C)nc4c3CCC4)ccc2C1NS(C)(=O)=O (stereo partly drawn) [Example 884, N-(2-ethyl-6-(2-((S)-2-methylazetidin-1-yl)-6,7-dihydro-5H-cyclopenta[d]pyrimidin-4-yl)-2,3-dihydrobenzofuran-3-yl)methanesulfonamide] | – | – | 46.1 | 96.2
C[C@H]1CCN1c1nc2c(c(-c3ccc4c(c3)CC(F)C4NS(C)(=O)=O)n1)CCC2 (stereo partly drawn) [Example 885, N-(2-fluoro-5-(2-((S)-2-methylazetidin-1-yl)-6,7-dihydro-5H-cyclopenta[d]pyrimidin-4-yl)-2,3-dihydro-1H-inden-1-yl)methanesulfonamide] | – | – | 26.1 | 150
C[C@@H]1Oc2cc(-c3nc(N4CC[C@@H]4C)nc4c3CCC4)ccc2[C@H]1NS(C)(=O)=O [Example 886, N-((2s,3r)-2-methyl-6-(2-((S)-2-methylazetidin-1-yl)-6,7-dihydro-5H-cyclopenta[d]pyrimidin-4-yl)-2,3-dihydrobenzofuran-3-yl)methanesulfonamide] | – | – | 13.2 | 27.1
C[C@@H]1Oc2cc(-c3nc(N4CC[C@@H]4C)nc4c3CCC4)ccc2[C@@H]1NS(C)(=O)=O [Example 887, N-((2s,3s)-2-methyl-6-(2-((S)-2-methylazetidin-1-yl)-6,7-dihydro-5H-cyclopenta[d]pyrimidin-4-yl)-2,3-dihydrobenzofuran-3-yl)methanesulfonamide] | – | – | 10.5 | 44.4
C[C@H]1CCN1c1nc2c(c(-c3ccc4c(c3)C(O)CC4NS(C)(=O)=O)n1)CCC2 (stereo partly drawn) [Example 888, N-(3-hydroxy-5-(2-((S)-2-methylazetidin-1-yl)-6,7-dihydro-5H-cyclopenta[d]pyrimidin-4-yl)-2,3-dihydro-1H-inden-1-yl)methanesulfonamide] | – | – | 4.1 | 51.3
Cc1cc(-c2nc(N3CC[C@@H]3C)nc3c2CCC3)cc2c1C(NS(C)(=O)=O)CO2 (stereo partly drawn) [Example 889, N-(4-methyl-6-(2-((S)-2-methylazetidin-1-yl)-6,7-dihydro-5H-cyclopenta[d]pyrimidin-4-yl)-2,3-dihydrobenzofuran-3-yl)methanesulfonamide] | – | – | 17.1 | 98.8
C[C@H]1CCN1c1nc2c(c(-c3ccc4c(c3)CCCC4NS(C)(=O)=O)n1)CCC2 (stereo partly drawn) [Example 890, N-(6-(2-((S)-2-methylazetidin-1-yl)-6,7-dihydro-5H-cyclopenta[d]pyrimidin-4-yl)-1,2,3,4-tetrahydronaphthalen-1-yl)methanesulfonamide] | – | – | 60.8 | 141
CC1Cc2cc(-c3nc(N4CC[C@@H]4C)nc4c3CCC4)ccc2C1NS(C)(=O)=O (stereo partly drawn) [Example 891, N-(2-methyl-5-(2-((S)-2-methylazetidin-1-yl)-6,7-dihydro-5H-cyclopenta[d]pyrimidin-4-yl)-2,3-dihydro-1H-inden-1-yl)methanesulfonamide] | – | – | 59.5 | 167
COC1Cc2cc(-c3nc(N4CC[C@@H]4C)nc4c3CCC4)ccc2C1NS(C)(=O)=O (stereo partly drawn) [Example 892, N-(2-methoxy-5-(2-((S)-2-methylazetidin-1-yl)-6,7-dihydro-5H-cyclopenta[d]pyrimidin-4-yl)-2,3-dihydro-1H-inden-1-yl)methanesulfonamide] | – | – | 99.5 | 330
C[C@H]1CCN1c1nc2c(c(-c3ccc4c(c3)CC(C(F)(F)F)C4NS(C)(=O)=O)n1)CCC2 (stereo partly drawn) [Example 893, N-(5-(2-((S)-2-methylazetidin-1-yl)-6,7-dihydro-5H-cyclopenta[d]pyrimidin-4-yl)-2-(trifluoromethyl)-2,3-dihydro-1H-inden-1-yl)methanesulfonamide] | – | – | 733 | 1780
CC1CC(NS(C)(=O)=O)c2ccc(-c3nc(N4CC[C@@H]4C)nc4c3CCC4)cc21 (stereo partly drawn) [Example 894, N-(3-methyl-5-(2-((S)-2-methylazetidin-1-yl)-6,7-dihydro-5H-cyclopenta[d]pyrimidin-4-yl)-2,3-dihydro-1H-inden-1-yl)methanesulfonamide] | – | – | 20.5 | 106
Cc1cc(-c2nc(N3CC[C@@H]3C)nc3c2CCC3)cc2c1C(NS(C)(=O)=O)CC2 (stereo partly drawn) [Example 895, N-(7-methyl-5-(2-((S)-2-methylazetidin-1-yl)-6,7-dihydro-5H-cyclopenta[d]pyrimidin-4-yl)-2,3-dihydro-1H-inden-1-yl)methanesulfonamide] | – | – | 38.1 | 175
NC1(c2ccc(-c3nc(N4CC[C@@H]4C(F)(F)F)nc4c3CCC4(F)F)s2)COC1 [Example 896, (R)-3-(5-(7,7-difluoro-2-(2-(trifluoromethyl)azetidin-1-yl)-6,7-dihydro-5H-cyclopenta[d]pyrimidin-4-yl)thiophen-2-yl)oxetan-3-amine] | – | – | 1.7 | 2.1
(S)-4-(2-(2-methylazetidin-1-yl)-6,7-dihydro-5H-cyclopenta[d]pyrimidin-4-yl)pyridine-2-sulfonamide [Example 224] | – | – | 114 | 155
